In ChEMBL document CHEMBL4602679, “Polyesterified Sesquiterpenoids from the Seeds of Celastrus paniculatus as Lifespan-Extending Agents for the Nematode Caenorhabditis elegans” (2020) one finds Survival and survival data, which are given here for ten compounds.

Assay [1] relates to Caenorhabditis elegans. The experiment in a line: Induction of lifespan expansion in late L4 larval stage of Caenorhabditis elegans Bristol N2 assessed as survival time at 50 uM (reference value: 15.19 =/- 0.53 day). It is filed as functional.
The test system of assay [2] is Caenorhabditis elegans. The assay can be described thus: Induction of lifespan expansion in late L4 larval stage of Caenorhabditis elegans Bristol N2 assessed as increase in survival time at 50 uM relative to control. It is filed as functional.

Molecules are shown by their SMILES.

`CC(=O)OC[C@@]12[C@@H](OC(C)=O)CC[C@@H](C)[C@@]13C[C@@H]([C@H](OC(C)=O)[C@@H]2OC(=O)c1ccoc1)C(C)(C)O3`: in the assay with Caenorhabditis elegans [1], the Survival was 16.38 days. On to `CC(=O)OC[C@@]12[C@@H](OC(C)=O)CC[C@@H](C)[C@]13OC(C)(C)[C@H]([C@@H](OC(C)=O)[C@@H]2OC(=O)c1ccoc1)[C@H]3OC(C)=O`, for which, in the assay with Caenorhabditis elegans [2], the survival at 50 µM was 11%. Further, in the assay with Caenorhabditis elegans [1], the Survival turned out to be 16.83 days. Take `CC(=O)OC[C@@]12[C@@H](OC(C)=O)CC[C@](C)(O)[C@]13OC(C)(C)[C@H]([C@H](OC(=O)c1ccoc1)[C@@H]2OC(=O)c1ccoc1)[C@H]3OC(C)=O`: the survival at 50 µM in the assay on Caenorhabditis elegans [2] is 14%. Also, in the assay on Caenorhabditis elegans [1], the Survival came to 17.39 days. Take `CC(=O)OC[C@@]12[C@@H](OC(C)=O)CC[C@](C)(O)[C@]13OC(C)(C)[C@H]([C@H](OC(C)=O)[C@H]2OC(=O)c1ccoc1)[C@H]3OC(C)=O`: the survival at 50 µM with Caenorhabditis elegans [2] is 16%. In addition, the Survival in the assay on Caenorhabditis elegans [1] was found to be 17.56 days. On to `CC(=O)OC[C@@]12[C@@H](OC(C)=O)CC[C@](C)(O)[C@]13OC(C)(C)[C@H]([C@@H](OC(C)=O)[C@@H]2OC(=O)c1ccoc1)[C@H]3OC(C)=O`, for which, in the assay on Caenorhabditis elegans [1], the Survival is 15.29 days. `CC(=O)OC[C@@]12[C@@H](OC(C)=O)CC[C@@H](C)[C@]13OC(C)(C)[C@H]([C@H](OC(C)=O)[C@H]2OC(=O)c1ccccc1)[C@H]3OC(C)=O`: the survival at 50 µM with Caenorhabditis elegans [2] came to 17%. In addition, the Survival in the assay with Caenorhabditis elegans [1] was found to be 17.77 days. Regarding `CC(=O)OC[C@@]12[C@@H](OC(C)=O)CC[C@@H](C)[C@@]13C[C@@H]([C@H](OC(C)=O)[C@H]2OC(=O)c1ccoc1)C(C)(C)O3`, in the assay on Caenorhabditis elegans [2], the survival at 50 µM was determined as 12%. For the same compound, the Survival in the assay with Caenorhabditis elegans [1] came to 17 days. The like results for `CC(=O)O[C@H]1CC[C@](C)(O)[C@]23OC(C)(C)[C@H]([C@H](OC(=O)c4ccoc4)[C@H](OC(=O)c4ccoc4)[C@]12CO)[C@H]3OC(C)=O` were, in that order, 18% and 18 days. In the case of `CC(=O)OC[C@]12[C@@H](OC(=O)c3ccoc3)[C@@H](OC(C)=O)[C@@H]3C[C@]1(OC3(C)C)[C@H](C)C[C@@H](OC(C)=O)[C@@H]2OC(C)=O`, the Survival in the assay with Caenorhabditis elegans [1] stood at 15.46 days.

In the case of `CC(=O)OC[C@@]12[C@@H](OC(C)=O)CC[C@](C)(O)[C@]13OC(C)(C)[C@H]([C@H](OC(C)=O)[C@@H]2OC(=O)c1ccoc1)[C@H]3OC(C)=O`, in the assay with Caenorhabditis elegans [2], the survival at 50 µM came out at 16%. Besides, the Survival in the assay on Caenorhabditis elegans [1] worked out at 17.67 days.
